US8017727B2, “Conjugates of membrane translocating agents and pharmaceutically active agents” (Merrion Research III Limited, priority 1999, dated 2011)
Read-outs that look alike come from different tables or passages of the source.

Columns and labels:
[1] = Systemic 3H bioavailability of kappa peptide conjugates, conscious rat model (plasma); assay type: in vivo, Wistar rats
Protocol: The possible enhancing effects of ELAN094 and ELAN207 MTLPs (SEQ ID NOs 2 and 60) on intestinal absorption of the kappa peptide were examined in a conscious rat model.
The study was non-randomised, parallel group design. Wistar rats within the 250-350 g weight range were used. All animals were fasted for a period of 16 h prior to study initiation. Water was available at all times.
Intravenous injection of 10 μCi of ^3H-kappa peptide-Kaffiralin-1 (plain kappa peptide) (tail vein injection).
Intraduodenal instillation of 100 μCi of ^3H-kappa peptide-Elan094 (Analysed). The Elan094 ligand contains a membrane translocating sequence.
Intraduodenal instillation of 100 μCi of ^3H-kappa peptide-Elan207 (Analysed). The Elan207 ligand contains a membrane translocating sequence.
Intraduodenal instillation of 100 μCi of ^3H-kappa peptide-Kaffiralin-1.
The plasma (100-250 μl) was made up to 1 ml with BTS-450 (an organic tissue solubiliser) and incubated for 1 hour. Ten ml of Scintillation fluid was added and the radioactivity was measured.
The study was a non-randomised, parallel group biostudy designed to evaluate the systemic bioavailability of tritium labelled kappa peptide conjugates after intra-duodenal instillation in the conscious rat model. Each rat only received one treatment and the plasma samples were analysed for tritium content. The calculation of AUClast, Amax, tmax, Volume of Distribution (V d) and Clearance was based on base line corrected data. The absolute bioavailability was calculated using potency corrected data.

[2] = 3H tissue distribution of kappa peptide conjugates, conscious rat model; assay type: in vivo, Wistar rats; details: potency corrected; for Kidney, % of administered dose / Plasma, % of administered dose / Total Recovery, % of administered dose: t=6 h
Protocol: The tissue was weighed and a representative sample, (ca 0.1 g), was removed to a scintillation vial. The tissue was solubilzed with 1 ml of BTS-450 (an organic tissue solubliser). Ten ml of scintillation fluid was added and the radioactivity was measured. The radioactivity was expressed as dpm/initial weight of tissue.

[3] = target: T1, kappa receptor (Rattus norvegicus, UniProt P34975); test: Competition for binding of a radiolabelled kappa peptide to rat brain homogenates; details: for opioid activity post conjugation: compared to unconjugated H-ffir-NH2 or to the ELAN207 conjugate
T1 construct: from tissue; host or cells: rat brain homogenate
Protocol: The integrity of the opioid peptide was evaluated post conjugation to assess suitability for inclusion in further studies. Opioid activity was assessed in vitro using a competition assay (competition for binding of a radiolabelled kappa peptide to rat brain homogenates).

[4] = intraduodenal (ID), 100 μCi, Elan207 = original group
[5] = IV, 10 μCi, listed as 3H Kappa peptide-Kaffiralin-1
[6] = IC50, Table 11, first IC50 column

SMILES: CC[C@@H](C)[C@@H](NC(=O)[C@@H](Cc1ccccc1)NC(=O)[C@H](N)Cc1ccccc1)C(=O)N[C@H](CCCNC(=N)N)C(N)=O [3H-Kappa peptide-Kaffiralin-1]
- 3H AUClast [1, 4]: 73098.43±9493.88 dpm/ml·h
- 3H Amax (maximum radioactivity) [1, 4]: 70925.33±23631.28 dpm/ml
- 3H AUClast ([1]; intravenous (IV), 10 μCi): 132184.24±13288.32 dpm/ml·h
- 3H Amax (maximum radioactivity) ([1]; intravenous (IV), 10 μCi): 903603.03±186855.31 dpm/ml
- bioavailability ([1]; rat, plasma, intraduodenal (ID), 100 μCi, potency corrected, Elan207 = original group, read-out: Absolute 3H bioavailability): 7.94 ± 1.92%
- clearance ([1]; rat, plasma, intravenous (IV), 10 μCi): 2.38 mL/min
- Vd ([1]; rat, plasma, intravenous (IV), 10 μCi, read-out: Volume of Distribution): 0.964 ± 0.256 L
- Catheter, % of administered dose ([2]; ID, 100 μCi): 0.06 ± 0.05%
- GI Tissue, % of administered dose ([2]; ID, 100 μCi): 7.72 ± 4.98%
- GI Washing, % of administered dose ([2]; ID, 100 μCi): 15.85 ± 5.00%
- GI contents, % of administered dose ([2]; ID, 100 μCi): 37.31 ± 15.75%
- Liver, % of administered dose ([2]; ID, 100 μCi): 0.63 ± 0.37%
- Total GI (% recovery from GI tissue, GI contents & GI wash) ([2]; ID, 100 μCi): 60.87 ± 16.74%
- Kidney, % of administered dose ([2]; ID, 100 μCi): 0.16 ± 0.17%
- Plasma, % of administered dose ([2]; ID, 100 μCi): 0.06 ± 0.01%
- Total Recovery, % of administered dose ([2]; ID, 100 μCi): 61.79 ± 16.93%
- Plasma, % of administered dose ([2]; ID, 100 μCi, listed as 3H-Kappa peptide Kaffiralin-1): 0.06±0.01%
- GI Tissue, % of administered dose ([2]; IV, 10 μCi): 1.62 ± 0.41%
- GI Washing, % of administered dose ([2]; IV, 10 μCi): 1.98 ± 1.01%
- GI contents, % of administered dose ([2]; IV, 10 μCi): 23.50 ± 11.04%
- Liver, % of administered dose ([2]; IV, 10 μCi): 6.66 ± 1.77%
- Total GI (% recovery from GI tissue, GI contents & GI wash) ([2]; IV, 10 μCi): 27.10 ± 11.93%
- Liver, % of administered dose [2, 5]: 6.66±1.77%
- Kidney, % of administered dose ([2]; IV, 10 μCi): 0.51 ± 0.08%
- Plasma, % of administered dose ([2]; IV, 10 μCi): 0.16 ± 0.03%
- Total Recovery, % of administered dose ([2]; IV, 10 μCi): 34.43 ± 13.36%
- Plasma, % of administered dose [2, 5]: 0.16±0.03%
- Total Recovery, % of administered dose ([2]; IV, 10 μCi, listed as 3H Kappa-peptide-Kaffiralin-1): 34.43±13.36%

SMILES: CC[C@@H](C)[C@@H](NC(=O)[C@@H](Cc1ccccc1)NC(=O)[C@H](N)Cc1ccccc1)C(=O)N[C@H](CCCNC(=N)N)C(=O)N[C@H](CCCCNC(=O)[C@H]1CCCN1C(=O)[C@@H](C)NC(=O)[C@@H](C)NC(=O)[C@@H](CC(C)C)NC(=O)[C@@H](CC(C)C)NC(=O)[C@H](NC(=O)[C@H]1CCCN1C(=O)[C@@H](CC(C)C)NC(=O)[C@@H](CC(C)C)NC(=O)[C@H](NC(=O)[C@@H](C)NC(=O)[C@@H](C)NC(=O)[C@@H](C)NC(=O)[C@@H](CCCCN)NC(=O)[C@H](N)CCCCN)C(C)C)C(C)C)C(N)=O [P10-110, H-ffirk(kkaaavllpvllaap-NH-e)-NH2]
- opioid activity post conjugation [3]: significantly reduced

SMILES: CC[C@@H](C)[C@@H](NC(=O)[C@@H](Cc1ccccc1)NC(=O)[C@H](N)Cc1ccccc1)C(=O)N[C@H](CCCNC(=N)N)C(=O)NCCCC[C@@H](NC(=O)[C@H]1CCCN1C(=O)[C@@H](C)NC(=O)[C@@H](C)NC(=O)[C@@H](CC(C)C)NC(=O)[C@@H](CC(C)C)NC(=O)[C@H](NC(=O)[C@H]1CCCN1C(=O)[C@@H](CC(C)C)NC(=O)[C@@H](CC(C)C)NC(=O)[C@H](NC(=O)[C@@H](C)NC(=O)[C@@H](C)NC(=O)[C@@H](C)NC(=O)[C@@H](CCCCN)NC(=O)[C@H](N)CCCCN)C(C)C)C(C)C)C(N)=O [P10-114, H-kkaaavllpvllaapk(ffir-NH-e)-NH2]
- IC50 ([3]; Day 5, second of duplicates, read-out: IC50): 1 nM
- IC50 ([3]; Day 82, first of triplicates, read-out: IC50): 0.8 nM
- IC50 ([3]; Day 82, second of triplicates, read-out: IC50): 0.8 nM
- opioid activity post conjugation [3]: retained, or even enhanced

SMILES: CC[C@@H](C)[C@@H](NC(=O)[C@@H](Cc1ccccc1)NC(=O)[C@H](N)Cc1ccccc1)C(=O)N[C@H](CCCNC(=N)N)C(=O)NCCCC[C@@H](NC(=O)[C@H]1CCCN1C(=O)[C@@H](C)NC(=O)[C@@H](C)NC(=O)[C@@H](CC(C)C)NC(=O)[C@@H](CC(C)C)NC(=O)[C@H](NC(=O)[C@H]1CCCN1C(=O)[C@@H](CC(C)C)NC(=O)[C@@H](CC(C)C)NC(=O)[C@H](NC(=O)[C@@H](C)NC(=O)[C@@H](C)NC(=O)[C@@H](C)NC(=O)[C@@H](CCCCN)NC(=O)[C@@H](CCCCN)NC(=O)[C@@H](N)CCCCNC(=O)CCCCCNC(=O)CCCC[C@@H]1SC[C@@H]2NC(=O)N[C@@H]21)C(C)C)C(C)C)C(N)=O [P34-154, H-K(biotin-LC)kkaaavllpvllaapk(ffir-NH-e)-NH2]
- opioid activity post conjugation [3]: retained activity

SMILES: CC[C@@H](C)[C@@H](NC(=O)[C@@H](Cc1ccccc1)NC(=O)[C@H](N)Cc1ccccc1)C(=O)N[C@H](CCCNC(=N)N)C(=O)NCCCC[C@H](NC(=O)[C@@H]1CCCN1C(=O)[C@H](C)NC(=O)[C@H](C)NC(=O)[C@H](CC(C)C)NC(=O)[C@H](CC(C)C)NC(=O)[C@@H](NC(=O)[C@@H]1CCCN1C(=O)[C@H](CC(C)C)NC(=O)[C@H](CC(C)C)NC(=O)[C@@H](NC(=O)[C@H](C)NC(=O)[C@H](C)NC(=O)[C@H](C)NC(=O)[C@H](CCCCN)NC(=O)[C@H](CCCCN)NC(=O)[C@@H](N)CCCCNC(=O)CCCCCNC(=O)CCCC[C@@H]1SC[C@@H]2NC(=O)N[C@@H]21)C(C)C)C(C)C)C(N)=O [P37-114]
- IC50 [3, 6]: 0.4 nM
- opioid activity post conjugation [3]: activity equivalent to that observed with ELAN207

SMILES: CC[C@@H](C)[C@@H](NC(=O)[C@@H](Cc1ccccc1)NC(=O)[C@H](N)Cc1ccccc1)C(=O)N[C@H](CCCNC(=N)N)C(=O)NCCCC[C@H](NC(=O)[C@@H](CCCCN)NC(=O)[C@@H](CCCCN)NC(=O)[C@@H](C)NC(=O)[C@@H](C)NC(=O)[C@@H](C)NC(=O)[C@H](NC(=O)[C@@H](CC(C)C)NC(=O)[C@@H](CC(C)C)NC(=O)[C@H]1CCCN1C(=O)[C@H](NC(=O)[C@@H](CC(C)C)NC(=O)[C@@H](CC(C)C)NC(=O)[C@@H](C)NC(=O)[C@@H](C)NC(=O)[C@H]1CCCN1C(=O)[C@@H](N)CCCCNC(=O)CCCCCNC(=O)CCCC[C@@H]1SC[C@@H]2NC(=O)N[C@@H]21)C(C)C)C(C)C)C(N)=O [P37-115, H-K(biotin-LC)paallvpllvaaakkK(ffir-NH-e)-NH2]
- opioid activity post conjugation [3]: activity equivalent to that observed with ELAN207

SMILES: CC[C@@H](C)[C@@H](NC(=O)[C@@H](Cc1ccccc1)NC(=O)[C@H](N)Cc1ccccc1)C(=O)N[C@H](CCCNC(=N)N)C(=O)NCCCC[C@H](NC(=O)[C@@H]1CSSC[C@H](NC(=O)[C@H](CCCCN)NC(=O)[C@H](CCCCN)NC(=O)[C@@H](N)CCCCNC(=O)CCCCCNC(=O)CCCC[C@@H]2SC[C@@H]3NC(=O)N[C@@H]32)C(=O)N[C@@H](C)C(=O)N[C@@H](C)C(=O)N[C@@H](C(C)C)C(=O)N[C@@H](CC(C)C)C(=O)N[C@@H](CC(C)C)C(=O)N2CCC[C@H]2C(=O)N[C@@H](C(C)C)C(=O)N[C@@H](CC(C)C)C(=O)N[C@@H](CC(C)C)C(=O)N[C@@H](C)C(=O)N1)C(N)=O [P37-116]
- IC50 [3, 6]: 0.2 nM
- opioid activity post conjugation [3]: activity equivalent to that observed with ELAN207
